Test results taken from patent US11572399B2, “Long-acting GIP peptide analogues” (University of Copenhagen, priority 2017, dated 2023).
Like-named read-outs stand apart in the source and are kept apart here. Peptide text beside a SMILES is read from it. * marks the point of attachment. Lauroyl = CCCCCCCCCCCC(=O)*

Assays:
[1] = molecular target: T1, human GIP receptor (Homo sapiens, UniProt P48546); experiment: cAMP accumulation assay, agonism (ligand alone); format: cell-based; details: COS-7 cells, Table 1; for Emax: COS-7, intrinsic cAMP activity
T1 construct: host or cells: COS-7, transient transfection (calcium phosphate), cDNA in pCMV-Script
T1 sequence (P48546 22-466): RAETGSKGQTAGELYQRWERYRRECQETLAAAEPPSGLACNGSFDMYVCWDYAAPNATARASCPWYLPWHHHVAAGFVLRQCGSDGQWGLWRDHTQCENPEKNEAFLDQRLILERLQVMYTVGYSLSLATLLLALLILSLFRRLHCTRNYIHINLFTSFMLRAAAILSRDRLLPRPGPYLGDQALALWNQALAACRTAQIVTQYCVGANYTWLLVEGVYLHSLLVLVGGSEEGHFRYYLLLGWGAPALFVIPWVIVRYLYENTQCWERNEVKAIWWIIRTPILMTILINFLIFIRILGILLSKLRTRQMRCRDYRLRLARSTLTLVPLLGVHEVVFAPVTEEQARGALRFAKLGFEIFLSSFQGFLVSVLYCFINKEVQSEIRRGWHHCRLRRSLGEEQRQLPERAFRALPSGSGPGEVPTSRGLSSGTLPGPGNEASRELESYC

[2] = molecular target: T1, human GIP receptor; experiment: 125I-human GIP competition binding assay, in the presence and absence of 2% HSA; details: for Fold change HSA (2%)/Casein (0.1%): IC50 (plus HSA)/IC50 (minus HSA); for Fold change in affinity, IC50 (plus HSA)/IC50 (minus HSA): presence vs absence of 2% HSA, proxy for albumin binding; for Binding fold (paired): fold decrease in affinity compared to GIP(3-30)NH2;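 on all read-outs here: nonspecific binding taken as radioligand bound to untransfected cells, IC50 obtained from nonlinear regression fits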
[3] = binding in 0.1% casein (absence of HSA), log value, read-out: logIC50 0.1% casein (converted)
[4] = Table 3b, initial data, read-out: Binding IC50
[5] = heterologous competition binding, transiently transfected COS-7 cells expressing the human GIP receptor, read-out: Binding

SMILES | Emax [1] | Fold change HSA (2%)/Casein (0.1%) [2] | IC50 [2, 3] | Fold change in affinity, IC50 (plus HSA)/IC50 (minus HSA) [2] | EC50 ([1]; read-out: cAMP agonism nM (EC50)) | IC50 [2, 4] | Binding fold (paired) ([2]; Table 3b) | IC50 [2, 5]
CCCCCCCCCCCCCCCCCC(=O)N[C@H](C(=O)N[C@@H](Cc1ccccc1)C(=O)N[C@H](C(=O)N[C@@H](CO)C(=O)N[C@@H](CC(=O)O)C(=O)N[C@@H](Cc1ccc(O)cc1)C(=O)N[C@@H](CO)C(=O)N[C@H](C(=O)N[C@@H](C)C(=O)N[C@@H](CCSC)C(=O)N[C@@H](CC(=O)O)C(=O)N[C@@H](CCCCN)C(=O)N[C@H](C(=O)N[C@@H](Cc1c[nH]cn1)C(=O)N[C@@H](CCC(N)=O)C(=O)N[C@@H](CCC(N)=O)C(=O)N[C@@H](CC(=O)O)C(=O)N[C@@H](Cc1ccccc1)C(=O)N[C@H](C(=O)N[C@@H](CC(N)=O)C(=O)N[C@@H](Cc1c[nH]c2ccccc12)C(=O)N[C@@H](CC(C)C)C(=O)N[C@@H](CC(C)C)C(=O)N[C@@H](C)C(=O)N[C@@H](CCC(N)=O)C(=O)N[C@@H](CCCCN)C(N)=O)C(C)C)[C@@H](C)CC)[C@@H](C)CC)[C@@H](C)CC)[C@@H](C)O [AT127, [hGIP(5-30)NH2—C18/5]] | 0% | 0.0 | 1580 nM |  |  |  |  | 
CCCCCCCCCCCC(=O)NCCCC[C@H](NC(=O)[C@@H](NC(=O)[C@H](CCCCN)NC(=O)[C@H](CC(=O)O)NC(=O)[C@H](CCSC)NC(=O)[C@H](C)NC(=O)[C@@H](NC(=O)[C@H](CO)NC(=O)[C@H](Cc1ccc(O)cc1)NC(=O)[C@H](CC(=O)O)NC(=O)[C@H](CO)NC(=O)[C@@H](NC(=O)[C@H](Cc1ccccc1)NC(=O)[C@@H](NC(=O)CNC(=O)[C@@H](N)CCC(=O)O)[C@@H](C)O)[C@@H](C)CC)[C@@H](C)CC)[C@@H](C)CC)C(=O)N[C@@H](CCC(N)=O)C(=O)N[C@@H](CCC(N)=O)C(=O)N[C@@H](CC(=O)O)C(=O)N[C@@H](Cc1ccccc1)C(=O)N[C@H](C(=O)N[C@@H](CC(N)=O)C(=O)N[C@@H](Cc1c[nH]c2ccccc12)C(=O)N[C@@H](CC(C)C)C(=O)N[C@@H](CC(C)C)C(=O)N[C@@H](C)C(=O)N[C@@H](CCC(N)=O)C(=O)N[C@@H](CCCCN)C(N)=O)C(C)C [AT116, [hGIP(3-30)NH2—C12/18]] (H-EGTFISDYSIAMDKIK(Lauroyl)QQDFVNWLLAQK-NH2; N-terminus assumed) | 0% |  |  | 5.2 fold |  |  |  | 
CCCCCCCCCCCCCCCC(=O)N[C@H](C(=O)N[C@@H](Cc1ccccc1)C(=O)N[C@H](C(=O)N[C@@H](CO)C(=O)N[C@@H](CC(=O)O)C(=O)N[C@@H](Cc1ccc(O)cc1)C(=O)N[C@@H](CO)C(=O)N[C@H](C(=O)N[C@@H](C)C(=O)N[C@@H](CCSC)C(=O)N[C@@H](CC(=O)O)C(=O)N[C@@H](CCCCN)C(=O)N[C@H](C(=O)N[C@@H](Cc1c[nH]cn1)C(=O)N[C@@H](CCC(N)=O)C(=O)N[C@@H](CCC(N)=O)C(=O)N[C@@H](CC(=O)O)C(=O)N[C@@H](Cc1ccccc1)C(=O)N[C@H](C(=O)N[C@@H](CC(N)=O)C(=O)N[C@@H](Cc1c[nH]c2ccccc12)C(=O)N[C@@H](CC(C)C)C(=O)N[C@@H](CC(C)C)C(=O)N[C@@H](C)C(=O)N[C@@H](CCC(N)=O)C(=O)N[C@@H](CCCCN)C(N)=O)C(C)C)[C@@H](C)CC)[C@@H](C)CC)[C@@H](C)CC)[C@@H](C)O [AT124, [hGIP(5-30)NH2—C16/5]] | 0% | 5.2 | 1580 nM |  |  |  |  | 
CCCCCCCCCCCCCCCCCC(=O)NCCCC[C@H](NC(=O)[C@H](CC(=O)O)NC(=O)[C@H](CCSC)NC(=O)[C@H](C)NC(=O)[C@@H](NC(=O)[C@H](CO)NC(=O)[C@H](Cc1ccc(O)cc1)NC(=O)[C@H](CC(=O)O)NC(=O)[C@H](CO)NC(=O)[C@@H](NC(=O)[C@H](Cc1ccccc1)NC(=O)[C@@H](NC(=O)CNC(=O)[C@@H](N)CCC(=O)O)[C@@H](C)O)[C@@H](C)CC)[C@@H](C)CC)C(=O)N[C@H](C(=O)N[C@@H](CCCNC(=N)N)C(=O)N[C@@H](CCC(N)=O)C(=O)N[C@@H](CCC(N)=O)C(=O)N[C@@H](CC(=O)O)C(=O)N[C@@H](Cc1ccccc1)C(=O)N[C@H](C(=O)N[C@@H](CC(N)=O)C(=O)N[C@@H](Cc1c[nH]c2ccccc12)C(=O)N[C@@H](CC(C)C)C(=O)N[C@@H](CC(C)C)C(=O)N[C@@H](C)C(=O)N[C@@H](CCC(N)=O)C(=O)N[C@@H](CCCNC(=N)N)C(N)=O)C(C)C)[C@@H](C)CC [AT162, [hGIP(3-30)NH2[H18R; K30R]-C18/16]] | 44% |  |  | 5.6 fold |  |  |  | 
CCCCCCCCCCCCCCCCCC(=O)N[C@@H](CCC(=O)O)C(=O)NCC(=O)N[C@H](C(=O)N[C@@H](Cc1ccccc1)C(=O)N[C@H](C(=O)N[C@@H](CO)C(=O)N[C@@H](CC(=O)O)C(=O)N[C@@H](Cc1ccc(O)cc1)C(=O)N[C@@H](CO)C(=O)N[C@H](C(=O)N[C@@H](C)C(=O)N[C@@H](CCSC)C(=O)N[C@@H](CC(=O)O)C(=O)N[C@@H](CCCCN)C(=O)N[C@H](C(=O)N[C@@H](Cc1c[nH]cn1)C(=O)N[C@@H](CCC(N)=O)C(=O)N[C@@H](CCC(N)=O)C(=O)N[C@@H](CC(=O)O)C(=O)N[C@@H](Cc1ccccc1)C(=O)N[C@H](C(=O)N[C@@H](CC(N)=O)C(=O)N[C@@H](Cc1c[nH]c2ccccc12)C(=O)N[C@@H](CC(C)C)C(=O)N[C@@H](CC(C)C)C(=O)N[C@@H](C)C(=O)N[C@@H](CCC(N)=O)C(=O)N[C@@H](CCCCN)C(N)=O)C(C)C)[C@@H](C)CC)[C@@H](C)CC)[C@@H](C)CC)[C@@H](C)O [AT113, [hGIP(3-30)NH2—C18/3]] | 77% |  |  |  | 9.9 nM | 41400 nM | 16380 fold | 41400 nM
CCCCCCCCCCCCCCCC(=O)N[C@@H](CCC(=O)O)C(=O)NCC(=O)N[C@H](C(=O)N[C@@H](Cc1ccccc1)C(=O)N[C@H](C(=O)N[C@@H](CO)C(=O)N[C@@H](CC(=O)O)C(=O)N[C@@H](Cc1ccc(O)cc1)C(=O)N[C@@H](CO)C(=O)N[C@H](C(=O)N[C@@H](C)C(=O)N[C@@H](CCSC)C(=O)N[C@@H](CC(=O)O)C(=O)N[C@@H](CCCCN)C(=O)N[C@H](C(=O)N[C@@H](Cc1c[nH]cn1)C(=O)N[C@@H](CCC(N)=O)C(=O)N[C@@H](CCC(N)=O)C(=O)N[C@@H](CC(=O)O)C(=O)N[C@@H](Cc1ccccc1)C(=O)N[C@H](C(=O)N[C@@H](CC(N)=O)C(=O)N[C@@H](Cc1c[nH]c2ccccc12)C(=O)N[C@@H](CC(C)C)C(=O)N[C@@H](CC(C)C)C(=O)N[C@@H](C)C(=O)N[C@@H](CCC(N)=O)C(=O)N[C@@H](CCCCN)C(N)=O)C(C)C)[C@@H](C)CC)[C@@H](C)CC)[C@@H](C)CC)[C@@H](C)O [AT104, [hGIP(3-30)NH2—C16/3]] | 81% |  |  |  |  | 75 nM | 4.9 fold | 75 nM
CCCCCCCCCCCCCC(=O)N[C@@H](CCC(=O)O)C(=O)NCC(=O)N[C@H](C(=O)N[C@@H](Cc1ccccc1)C(=O)N[C@H](C(=O)N[C@@H](CO)C(=O)N[C@@H](CC(=O)O)C(=O)N[C@@H](Cc1ccc(O)cc1)C(=O)N[C@@H](CO)C(=O)N[C@H](C(=O)N[C@@H](C)C(=O)N[C@@H](CCSC)C(=O)N[C@@H](CC(=O)O)C(=O)N[C@@H](CCCCN)C(=O)N[C@H](C(=O)N[C@@H](Cc1c[nH]cn1)C(=O)N[C@@H](CCC(N)=O)C(=O)N[C@@H](CCC(N)=O)C(=O)N[C@@H](CC(=O)O)C(=O)N[C@@H](Cc1ccccc1)C(=O)N[C@H](C(=O)N[C@@H](CC(N)=O)C(=O)N[C@@H](Cc1c[nH]c2ccccc12)C(=O)N[C@@H](CC(C)C)C(=O)N[C@@H](CC(C)C)C(=O)N[C@@H](C)C(=O)N[C@@H](CCC(N)=O)C(=O)N[C@@H](CCCCN)C(N)=O)C(C)C)[C@@H](C)CC)[C@@H](C)CC)[C@@H](C)CC)[C@@H](C)O [AT110, [hGIP(3-30)NH2—C14/3]] | 64% |  |  |  |  |  | 5.2 fold | 
CC[C@H](C)[C@H](NC(=O)[C@H](CO)NC(=O)[C@H](Cc1ccc(O)cc1)NC(=O)[C@H](CC(=O)O)NC(=O)[C@H](CO)NC(=O)[C@@H](NC(=O)[C@H](Cc1ccccc1)NC(=O)[C@@H](N)[C@@H](C)O)[C@@H](C)CC)C(=O)N[C@@H](C)C(=O)N[C@@H](CCSC)C(=O)N[C@@H](CC(=O)O)C(=O)N[C@@H](CCCCNC(=O)CCCCCCCCCCCCC(=O)O)C(=O)N[C@H](C(=O)N[C@@H](Cc1c[nH]cn1)C(=O)N[C@@H](CCC(N)=O)C(=O)N[C@@H](CCC(N)=O)C(=O)N[C@@H](CC(=O)O)C(=O)N[C@@H](Cc1ccccc1)C(=O)N[C@H](C(=O)N[C@@H](CC(N)=O)C(=O)N[C@@H](Cc1c[nH]c2ccccc12)C(=O)N[C@@H](CC(C)C)C(=O)N[C@@H](CC(C)C)C(=O)N[C@@H](C)C(=O)N[C@@H](CCC(N)=O)C(=O)N[C@@H](CCCCN)C(N)=O)C(C)C)[C@@H](C)CC [AT139, [hGIP(5-30)NH2—C14diacid/16]] | 0% | 2.6 | 158 nM |  |  |  |  | 153 nM
